This is an account of results in patent US9561228B2 (Celgene Avilomics Research, Inc., priority 2013, dated 2017).

Test [1] deals with ERK1/2 phosphorylation of p90RSK in HCT116 cells. In words: Detection of total and phospho-RSK by MSD ELISA (HCT116). The test is classed as cell-based. As to conditions: Homo sapiens, HCT-116, read-out: ERK1/ERK2 PRSK HCT116 EC50. How it is done: Detection of Total and Phospho-RSK by MSD ELISA (HCT116)
(§1) The protocol below describes an assay to measure the kinase activity of ERK1/2 to phosphorylate a substrate, p90RSK, in the presence or absence of a test compound.
HCT116 cells were grown in RPMI/10% FBS. Prior to the assay, 50,000 cells per well were plated in a 96 well flat bottom plate. Cells were cultured overnight in an incubator at 37° C.
Compound stocks were 10 mM in DMSO. A 1000× dilution was made in DMSO. 1 uL of the DMSO solution was transferred to 1 ml RPMI/10% FBS in a deep well plate. Media in the cell plate was discarded, and 100 uL of the compound-containing media was added. The preparation was incubated at 37° C. for 2 hrs.
Preparation of cell lysates are described below.
pRSK or total RSK MSD Assay
MSD plates: Blank MSD plates were coated with 30 uL capture antibody (BD 610226) at a final concentration of 1 ug/mL in PBS. Both pRSK and total RSK MSD assays used the same capture antibody at the same concentration. Antibody stock concentration was 250 ug/mL. Once antibody solution was added to MSD plate, the sides were tapped to be certain it was coated completely (visual inspection). It was then covered and placed at 4° C. overnight on a level surface.
Block MSD Plate: The coating antibody was removed and the plate was washed on a plate washer in MSD wash buffer. The last bit of wash solution was tapped out and 150 uL/well 3% BSA (MSD Blocker A) in MSD wash buffer was added. The preparation was placed on a shaker at room temperature for at least an hour.
Add samples: Media was removed from compound-treated cells and replaced with 55 uL/well MSD cell lysis buffer containing protease and phosphotase I & II inhibitors. The preparations was incubate on a shaker in a cold room for 30-45 min. The blocked MSD plate was washed on a plate washer, and the last bit of wash solution was tapped out. Next was added 50 uL (of the 55 uL) cell lysate in a well-well transfer. The preparation was covered and incubated on shaker at room temp for 2 hours. The lysate was then removed and washed on plate washer 3 times. The last bit of wash buffer was then tapped out and replaced with 25 uL/well detection antibody (described below).
For pRSK detection, a pRSK antibody stock of 21 ug/mL was prepared as follows: 1 ug/mL pRSK Ser380 antibody (Cell Signaling Technology, Cat. #9335)+1:750 anti-rabbit SulfoTag (from MSD, R32AB-1) in 1% BSA in MSD wash buffer.
(§2) For total RSK detection, a total RSK antibody stock of 200 ug/mL was prepared as follows: 1 ug/mL total RSK (Santa Cruz sc-231G) antibody+1:750 anti-goat SulfoTag (from MSD, R32AG-1) in 1% BSA in MSD wash buffer.
The plate was incubated for 1 hr at room temperature on a shaker, followed by three washes. The last bit of wash buffer was tapped out. Next, 150 uL/well 1×MSD Read buffer was added and the plate was analyzed by the MSD reader.

For test [2], the system named is ERK1/2 phosphorylation of p90RSK in HT29 cells. In words: pRSK MSD Assay in HT29 cells. As to conditions: Homo sapiens, HT-29, read-out: ERK1/ERK2 PRSK MSD HT29 EC50. The test is classed as cell-based. An outline of the steps:
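Serum-starved HT29 cells (0.1% FBS overnight) treated with test compound for 120 min at 37° C, then lysed with protease and phosphatase inhibitors. Phospho-p90RSK quantified by MSD sandwich immunoassay: RSK capture antibody, phospho-RSK detection antibody plus Sulfo-tagged antibody, electrochemiluminescence read.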

The subject of test [3] is ERK1/2 phosphorylation of p90RSK in A375 cells. Description: Detection of total and phosphor-RSK by MSD ELISA (A375). Type of test: cell-based. The settings on record: Homo sapiens, A-375, read-out: ERK1/ERK2 PRSK A375 EC50. Here is the method: Detection of Total and Phosphor-RSK by MSD ELISA (A375)
as §1
A375 cells were grown in DMEM/10% FBS. Twenty four hours prior to the assay, 50,000 cells per well were plated in a 96 well flat bottom plate. Once cells attached to the plate, the medium was replaced with 100 ul of DMEM/0.1% FBS. Cells were cultured overnight in an incubator at 37° C.
Compound stock solutions of 10 mM in DMSO were prepared. 1000× dilutions were then prepared in DMSO. 1 uL of DMSO solution was then transferred to 1 ml DMEM/0.1% FBS in a deep well plate. Cell plate media was discarded, followed by addition of 100 uL of the compound-containing media. The preparation was incubated at 37° C. for 2 hrs.
Cell lysates were prepared as described below.
pRSK or Total RSK MSD Assay
MSD plates: Blank MSD plates were coated with 30 uL capture antibody (BD 610226) at a final concentration of 1 ug/mL in PBS. Both pRSK and total RSK MSD assays used the same capture antibody at the same concentration. Antibody stock concentration was 250 ug/mL. Once antibody solution was added to the MSD plate, the sides were tapped to be certain it was coated completely (visual inspection). It was then covered and placed at 4° C. overnight on a level surface.
Block MSD Plate: The coating antibody was removed and the plate was washed on a plate washer in MSD wash buffer. The last bit of wash solution was tapped out and 150 uL/well of 3% BSA in MSD wash buffer was added in. The preparation was placed on a shaker at room temperature for at least an hour.
Add samples: Media was removed from compound-treated cells and replaced with 55 uL/well MSD cell lysis buffer containing protease and phosphotase I & II inhibitors. The preparation was incubated on a shaker in a cold room for 30-45 min. The blocked MSD plate was washed a on plate washer, tapping out the last bit of wash solution, followed by addition of 50 uL (of the 55 ul) cell lysate in a well-well transfer. The preparation was covered and incubated on a shaker at room temp for 2 hours. The lysate was removed, washed on a plate washer 3 times, and the last bit of wash buffer was tapped out and replace with 25 uL/well detection antibody (described below).
For pRSK detection, a pRSK antibody stock of 21 ug/mL was prepared as follows: 1 ug/mL pRSK Ser380 antibody (Cell Signaling Technology, Cat. #9335)+1:750 anti-rabbit SulfoTag (Mesoscale Discovery, Cat. # R32AB-1) in 1% BSA in MSD wash buffer.
as §2
The plate was incubated for 1 hr at room temperature on a shaker, followed by three washings. The last bit of wash buffer was tapped out. 150 uL/well 1×MSD Read buffer was added and the plate was then analyzed.
Background: In an ELISA, binding on a coated surface is turned into a signal by an enzyme label.

Another test addresses T1, MEK1 activated ERK1 (Homo sapiens, UniProt P27361).
T1 construct: purchased Millipore (Billerica, Mass.) 14-439-K
Description: Omnia continuous-read kinase assay for potency against MEK1 activated ERK1. Type of test: biochemical. In outline:
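Apparent IC50 came from initial reaction slopes (RFU vs time) plotted against log inhibitor with a variable-slope fit. Reactions were started with ERK1 (4 nM final) added to 50 μM ATP, roughly at its appKM, and 10 μM Sox-conjugated ST17 peptide in 20 mM Tris pH 7.5, 5 mM MgCl2. Fluorescence was monitored every 71 seconds.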

The subject of test [4] is HT-29 cells (colorectal adenocarcinoma). In words: Inhibition of cancer cell proliferation, HT-29 (CellTiterGlo, 72 hours). The test is classed as cell-based. As to conditions: Homo sapiens. Here is the method: Measurement of Inhibition of Cancer Cell Proliferation (HT-29/Colorectal Adenocarcinoma)
The following protocol used an HT-29 cell line, which cell line is a model for colorectal adenocarcinoma. HT-29 cells were split and 3000 cells in 100 μl of growth medium were added per well of a flat-bottom 96-well plate. A two-fold test compound solution in serum-free RPM1640 was made, starting at 5,000 nM. Then, 3-fold serial dilutions were made across the plate from well 1 to well 11. Well 12, the last well in a row on the plate, was left as untreated control. 100 μl compound solutions were then transferred to the wells, so the total volume of media was 200 μl per well. Plates were returned to a 37° C. incubator, and the cells were cultured for 72 hours. To measure cell proliferation after 72 hours, media was discarded from the plates, 50 μl/well of fresh medium was added, and 50 μl CellTiterGlo solution was added (Promega Cat#G7573). The plate was covered with a dark lid and incubated for 10 min. A white sealing tape was applied to the bottom of the plate, and the plate was read in a luminescence plate reader. […] A 2-fold serial dilution was used to generate 8 cell densities from 50,000-390 cells per well in 50 μl media. 50 μl CellTiterGlo was added per well, and the plate was read in a luminescence plate reader after 10 min. The reading was plotted vs. cell number to generate a standard curve and the equation of the curve fit. The compound-treated sample luminescence readings were converted to cell numbers using the curve-fit equation. The percent of inhibition, using untreated control as 100% growth, was then calculated. GI50 was then calculated by GraphPad Prism.
In general terms: Cellular ATP, detected with luciferase, serves as a proxy for viable cell number.

Setting [5] is: MEK1 activated ERK1, ATP at KM, read-out: ERK1 Omnia WT ATP KM IC50.

Where two headings read alike, the source gives them in different places. A value given as a limit tells only on which side of the number the result lay.

T1 sequence (P27361 whole entry): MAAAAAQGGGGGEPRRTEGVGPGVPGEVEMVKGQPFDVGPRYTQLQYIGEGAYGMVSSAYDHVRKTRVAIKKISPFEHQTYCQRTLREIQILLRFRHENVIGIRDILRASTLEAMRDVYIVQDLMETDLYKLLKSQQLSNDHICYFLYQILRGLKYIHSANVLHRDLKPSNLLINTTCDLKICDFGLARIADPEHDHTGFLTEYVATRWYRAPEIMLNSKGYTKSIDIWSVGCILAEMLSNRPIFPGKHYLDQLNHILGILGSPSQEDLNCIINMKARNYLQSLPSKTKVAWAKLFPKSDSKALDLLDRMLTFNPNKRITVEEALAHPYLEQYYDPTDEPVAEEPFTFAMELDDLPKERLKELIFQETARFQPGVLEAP

`C=CC(=O)Nc1cc(C)ccc1Nc1nc(Nc2cnnc(OC)c2)ncc1C(F)(F)F` [Compound I-335, N-(2-((2-((6-methoxypyridazin-4-yl)amino)-5-(trifluoromethyl)pyrimidin-4-yl)amino)-5-methylphenyl)acrylamide]: the EC50 in test [1], in test [2] and in test [3] was 501 to 999 nM in each case.
Consider `C=CC(=O)Nc1cc(C)ccc1Nc1nc(Nc2cc(OC)nc(N3CCC3)c2)ncc1C(F)(F)F` [Compound I-329, N-(2-((2-((2-(azetidin-1-yl)-6-methoxypyridin-4-yl)amino)-5-(trifluoromethyl)pyrimidin-4-yl)amino)-5-methylphenyl)acrylamide], for which the EC50 in test [1] is 101 to 500 nM; in test [2] it was 101 to 500 nM; in test [3], over 1000 nM.
Turning to `C=CC(=O)Nc1cc(OC(C)(C)C(N)=O)ccc1Nc1nc(Nc2cc(OC)ncc2C)ncc1C(F)(F)F` [Compound I-414, N-(5-((1-amino-2-methyl-1-oxopropan-2-yl)oxy)-2-((2-((2-methoxy-5-methylpyridin-4-yl)amino)-5-(trifluoromethyl)pyrimidin-4-yl)amino)phenyl)acrylamide], on MEK1 activated ERK1 (ATP at KM, WT), the IC50 (as a rule, the concentration at which inhibition is half-maximal) was under 100 nM. Moreover, the EC50 in test [2] and in test [3] was under 100 nM in each case.
In the case of `CCC(=O)Nc1cc(C)ccc1Nc1nc(Nc2cc(OC)ncc2C)ncc1C(F)(F)F` [Compound I-352, N-(2-((2-((2-methoxy-5-methylpyridin-4-yl)amino)-5-(trifluoromethyl)pyrimidin-4-yl)amino)-5-methylphenyl)propionamide], the EC50 in test [1] and in test [3] was over 1000 nM each time.
Turning to `C=CC(=O)Nc1ccccc1Nc1nc(Nc2c[nH]nc2C)ncc1C(F)(F)F` [Compound I-330, N-(2-((2-((3-methyl-1H-pyrazol-4-yl)amino)-5-(trifluoromethyl)pyrimidin-4-yl)amino)phenyl)acrylamide], the EC50 in test [1] was over 1000 nM; in test [3], 101 to 500 nM.
For `C=CC(=O)Nc1cc(C)ccc1Nc1nc(N[C@@H]2CCN(S(=O)(=O)C=C)C2)ncc1C(F)(F)F` [Compound I-280, (R)—N-(5-Methyl-2-((5-(trifluoromethyl)-2-((1-(vinylsulfonyl)pyrrolidin-3-yl)amino)pyrimidin-4-yl)amino)phenyl)acrylamide] the same measures were over 1000 nM and over 1000 nM.
For `C=CC(=O)Nc1cc(C)ccc1Nc1nc(Nc2cnnc(Cl)c2)ncc1C(F)(F)F` [Compound I-331, N-(2-((2-((6-chloropyridazin-4-yl)amino)-5-(trifluoromethyl)pyrimidin-4-yl)amino)-5-methylphenyl)acrylamide] the same measures were over 1000 nM and 501 to 999 nM.
As to `C=CC(=O)Nc1ccccc1Nc1nc(Nc2ccc(F)cc2C)ncc1Cl` [Compound I-209, N-(2-((5-chloro-2-((4-fluoro-2-methylphenyl)amino)pyrimidin-4-yl)amino)phenyl)acrylamide], the IC50 on MEK1 activated ERK1 (setting [5]) was 101 to 500 nM. Also, the EC50 in test [2] lay in the range of 101 to 500 nM. In test [4], the GI50 (in general, the concentration giving 50% growth inhibition) lay within 501 to 999 nM.
For the compound `C=CC(=O)Nc1ccccc1Nc1nc(N[C@@H]2CCC[C@H](C(=O)NOCCO)C2)ncc1Cl` (racemic) [Compound I-103, Rac-3-((4-((2-acrylamidophenyl)amino)-5-chloropyrimidin-2-yl)amino)-N-(2-hydroxyethoxy)-cis-cyclohexanecarboxamide], the IC50 at MEK1 activated ERK1 (setting [5]) is under 100 nM. In addition, the EC50 in test [2] was 101 to 500 nM. This compound also returned a GI50 in test [4] of under 100 nM.
Regarding `C=CC(=O)Nc1ccccc1Nc1nc(Nc2ccc(NC(=O)CO)cc2OC)ncc1Cl` [Compound I-186, N-(2-((5-chloro-2-((4-(2-hydroxyacetamido)-2-methoxyphenyl)amino)pyrimidin-4-yl)amino)phenyl)acrylamide], the IC50 on MEK1 activated ERK1 (setting [5]) fell in the range of 101 to 500 nM. Further, the EC50 in test [2] lay in the range of 501 to 999 nM. The same compound yielded a concentration for 50% growth inhibition (GI50) in test [4] of over 1000 nM.
For `C=CC(=O)Nc1ccccc1Nc1nc(Nc2ccc(NS(C)(=O)=O)cc2OC)ncc1Cl` [Compound I-185, N-(2-((5-chloro-2-((2-methoxy-4-(methylsulfonamido)phenyl)amino)pyrimidin-4-yl)amino)phenyl)acrylamide] the same measures were 101 to 500 nM, 101 to 500 nM and 501 to 999 nM.
